Measured values from ChEMBL document CHEMBL1201862, “PubChem BioAssay data set” (2004).
Activity calls are given as the source filed them.

Columns and labels:
[1] = target: Lysosomal acid glucosylceramidase (Homo sapiens, UniProt P04062); experiment: Dose response cell-based high throughput screening assay to identify enhancers of beta-glucosidase activity. [Related pubchem assays: 784 ]; type: functional
[2] = target: Heat shock 70 kDa protein 1A (Homo sapiens, UniProt P0DMV8); experiment: Hsp70 inhibitors, SAR follow-up, biochemical, fluorescence polarization (AID 1072)
[3] = target: T1, Dual specificity protein phosphatase 6 (Rattus norvegicus, UniProt Q64346); type: functional
T1 sequence (Q64346 whole entry): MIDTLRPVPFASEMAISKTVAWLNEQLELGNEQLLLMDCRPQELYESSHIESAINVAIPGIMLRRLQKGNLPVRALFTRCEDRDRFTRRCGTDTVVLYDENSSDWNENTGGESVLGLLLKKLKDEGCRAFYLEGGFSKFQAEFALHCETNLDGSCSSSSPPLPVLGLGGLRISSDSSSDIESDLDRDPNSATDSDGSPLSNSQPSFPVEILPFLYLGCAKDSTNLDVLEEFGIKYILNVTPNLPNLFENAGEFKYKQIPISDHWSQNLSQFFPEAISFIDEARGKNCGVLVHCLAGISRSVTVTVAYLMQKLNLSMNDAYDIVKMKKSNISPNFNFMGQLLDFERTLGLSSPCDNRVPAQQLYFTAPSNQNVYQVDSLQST

[4] = target: Heat shock cognate 71 kDa protein (Homo sapiens, UniProt P11142); experiment: In Vitro Hsc70 Dose Response Fluorescence Polarization Assay. [Related pubchem assays: 1072 ]
[5] = target: T2, Tyrosine-protein phosphatase non-receptor type 7 (Homo sapiens, UniProt P35236); type: functional
T2 sequence (P35236 whole entry): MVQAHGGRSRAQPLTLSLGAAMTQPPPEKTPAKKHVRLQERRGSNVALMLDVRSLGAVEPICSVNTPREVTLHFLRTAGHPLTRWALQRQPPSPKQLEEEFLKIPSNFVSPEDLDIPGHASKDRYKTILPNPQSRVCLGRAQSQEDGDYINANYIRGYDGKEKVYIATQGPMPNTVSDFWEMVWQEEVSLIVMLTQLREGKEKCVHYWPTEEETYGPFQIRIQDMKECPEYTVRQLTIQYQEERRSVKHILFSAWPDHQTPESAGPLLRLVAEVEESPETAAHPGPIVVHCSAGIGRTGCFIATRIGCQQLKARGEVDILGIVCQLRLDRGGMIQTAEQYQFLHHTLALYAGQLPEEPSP

[6] = target: Glyceraldehyde-3-phosphate dehydrogenase (Homo sapiens, UniProt P04406)
Glyceraldehyde-3-phosphate dehydrogenase, sequence (P04406 whole entry): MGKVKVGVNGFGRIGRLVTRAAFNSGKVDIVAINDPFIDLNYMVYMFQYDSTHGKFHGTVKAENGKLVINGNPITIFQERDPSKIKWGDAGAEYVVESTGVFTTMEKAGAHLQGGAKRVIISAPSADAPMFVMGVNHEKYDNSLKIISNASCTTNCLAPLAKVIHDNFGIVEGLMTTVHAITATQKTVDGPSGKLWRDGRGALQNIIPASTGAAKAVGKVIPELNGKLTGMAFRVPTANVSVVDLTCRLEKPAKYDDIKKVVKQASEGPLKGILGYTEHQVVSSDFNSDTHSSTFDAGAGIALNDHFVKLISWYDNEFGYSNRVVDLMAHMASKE

[7] = target: T1, Dual specificity protein phosphatase 6
Vibrio harveyi [8] = experiment: inhibitors of AI-2 quorum sensing in V. harveyi, dose response, LuxS, LuxPQ, dry powder, set 2 (AID 493072); type: functional, organism-based
Vibrio harveyi [9] = experiment: Quorum Sensing, LuxS, LuxPQ Measured in Microorganism System Using Plate Reader - 2035-01_Inhibitor_DoseNoFile_DryPowder_Activity. [Related pubchem assays (depositor defined):AID2106]; type: functional, organism-based
Procathepsin L = Procathepsin L (Homo sapiens, UniProt P07711)
Procathepsin L, sequence (P07711 whole entry): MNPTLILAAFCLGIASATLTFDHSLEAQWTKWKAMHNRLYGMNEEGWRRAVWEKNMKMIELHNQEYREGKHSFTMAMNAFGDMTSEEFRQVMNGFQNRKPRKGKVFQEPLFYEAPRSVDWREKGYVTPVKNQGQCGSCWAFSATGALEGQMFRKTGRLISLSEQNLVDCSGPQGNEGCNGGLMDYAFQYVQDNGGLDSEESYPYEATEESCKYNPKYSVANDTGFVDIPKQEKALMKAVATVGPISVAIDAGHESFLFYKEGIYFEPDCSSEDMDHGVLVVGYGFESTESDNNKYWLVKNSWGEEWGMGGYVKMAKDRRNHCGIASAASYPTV

Aspartyl aminopeptidase = target: T3, Aspartyl aminopeptidase (Plasmodium falciparum 3D7, UniProt Q8I2J3)
T3 sequence (Q8I2J3 whole entry): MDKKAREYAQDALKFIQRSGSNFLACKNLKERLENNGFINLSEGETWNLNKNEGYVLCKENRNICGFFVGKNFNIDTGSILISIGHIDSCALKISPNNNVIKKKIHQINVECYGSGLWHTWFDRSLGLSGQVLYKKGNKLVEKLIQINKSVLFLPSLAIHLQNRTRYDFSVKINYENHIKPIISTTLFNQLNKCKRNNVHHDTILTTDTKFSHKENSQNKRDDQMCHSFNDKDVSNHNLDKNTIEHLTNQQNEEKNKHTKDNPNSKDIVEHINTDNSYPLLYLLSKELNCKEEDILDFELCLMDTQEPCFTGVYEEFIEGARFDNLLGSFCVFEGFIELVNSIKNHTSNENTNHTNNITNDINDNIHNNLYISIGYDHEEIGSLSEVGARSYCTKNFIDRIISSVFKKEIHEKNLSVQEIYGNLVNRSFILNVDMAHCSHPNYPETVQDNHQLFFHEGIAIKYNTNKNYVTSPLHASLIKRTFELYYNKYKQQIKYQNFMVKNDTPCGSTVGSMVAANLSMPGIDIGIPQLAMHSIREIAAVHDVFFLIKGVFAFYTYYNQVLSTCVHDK

Large T antigen = Large T antigen (Simian virus 40, UniProt P03070); type: functional, Betapolyomavirus macacae;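 further: Confirmatory-stage PubChem screen for compounds that inhibit SV40 T antigen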
Large T antigen, sequence (P03070 whole entry): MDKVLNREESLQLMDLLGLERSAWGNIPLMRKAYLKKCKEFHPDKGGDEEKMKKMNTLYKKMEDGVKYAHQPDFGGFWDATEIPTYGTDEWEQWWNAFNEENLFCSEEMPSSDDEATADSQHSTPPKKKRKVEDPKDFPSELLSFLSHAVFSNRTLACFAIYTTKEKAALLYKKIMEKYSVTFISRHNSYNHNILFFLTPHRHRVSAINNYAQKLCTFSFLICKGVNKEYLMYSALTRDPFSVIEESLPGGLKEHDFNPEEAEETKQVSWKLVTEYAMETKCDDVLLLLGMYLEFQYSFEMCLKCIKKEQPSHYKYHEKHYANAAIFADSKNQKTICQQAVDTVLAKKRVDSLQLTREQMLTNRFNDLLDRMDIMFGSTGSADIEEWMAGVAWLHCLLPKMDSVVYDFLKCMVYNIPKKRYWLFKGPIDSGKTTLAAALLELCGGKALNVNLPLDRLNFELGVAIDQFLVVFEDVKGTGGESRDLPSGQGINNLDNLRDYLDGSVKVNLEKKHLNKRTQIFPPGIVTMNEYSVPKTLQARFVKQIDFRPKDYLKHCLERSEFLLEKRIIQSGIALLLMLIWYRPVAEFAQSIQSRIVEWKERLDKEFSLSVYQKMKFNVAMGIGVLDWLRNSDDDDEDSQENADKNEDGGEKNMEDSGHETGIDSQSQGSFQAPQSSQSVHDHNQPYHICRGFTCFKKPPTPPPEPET

[10] = target: RNA-editing ligase 1, mitochondrial (Trypanosoma brucei brucei, UniProt P86926); experiment: TbREL1 ligase inhibitors, dose response, biochemical, fluorescence, Trypanosoma brucei (AID 1117295); type: functional
RNA-editing ligase 1, mitochondrial, sequence (P86926 whole entry): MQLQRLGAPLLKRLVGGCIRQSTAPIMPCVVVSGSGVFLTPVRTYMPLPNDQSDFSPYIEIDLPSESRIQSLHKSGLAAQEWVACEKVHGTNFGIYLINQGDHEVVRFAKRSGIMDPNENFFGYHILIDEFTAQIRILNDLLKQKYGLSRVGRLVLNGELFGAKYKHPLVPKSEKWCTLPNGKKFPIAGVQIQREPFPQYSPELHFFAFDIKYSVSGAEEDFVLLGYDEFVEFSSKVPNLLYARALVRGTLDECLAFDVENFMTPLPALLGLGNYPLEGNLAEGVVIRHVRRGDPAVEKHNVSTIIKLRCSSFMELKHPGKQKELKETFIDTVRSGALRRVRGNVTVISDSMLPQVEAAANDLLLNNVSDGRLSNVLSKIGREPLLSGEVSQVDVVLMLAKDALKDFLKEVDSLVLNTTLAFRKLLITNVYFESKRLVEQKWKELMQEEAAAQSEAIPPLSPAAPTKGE

[11] = target: T4, Alkaline phosphatase, tissue-nonspecific isozyme (Homo sapiens, UniProt P05186)
T4 sequence (P05186 whole entry): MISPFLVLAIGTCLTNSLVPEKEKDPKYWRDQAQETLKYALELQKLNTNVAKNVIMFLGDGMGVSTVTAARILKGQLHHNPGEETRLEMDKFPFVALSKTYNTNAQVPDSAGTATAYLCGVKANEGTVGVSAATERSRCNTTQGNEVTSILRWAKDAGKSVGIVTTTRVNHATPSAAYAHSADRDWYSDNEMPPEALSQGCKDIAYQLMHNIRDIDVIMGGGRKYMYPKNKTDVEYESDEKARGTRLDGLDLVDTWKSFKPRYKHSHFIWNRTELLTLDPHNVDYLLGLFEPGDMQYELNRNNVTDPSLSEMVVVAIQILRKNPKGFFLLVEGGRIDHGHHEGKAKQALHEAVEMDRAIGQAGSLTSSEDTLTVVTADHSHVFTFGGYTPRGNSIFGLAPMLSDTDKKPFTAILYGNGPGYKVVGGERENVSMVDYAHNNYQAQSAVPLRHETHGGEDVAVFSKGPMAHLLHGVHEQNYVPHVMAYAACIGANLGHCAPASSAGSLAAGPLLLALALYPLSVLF

[12] = inhibitors of intracellular T. cruzi replication, confirmation, NIH3T3 host cells, beta-gal luminescence (AID 2044); type: functional, cell-based;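 further: intracellular parasites grown in NIH/3T3 mouse fibroblasts as host cells; luminescent beta-galactosidase reporter signal from transgenic T. cruzi replicating inside host cells; inhibitors lower the luminescence signal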
[13] = cytotoxicity toward NIH3T3 fibroblasts, dose response, counter-screen, cell-based, ATP luminescence, mouse fibroblasts (AID 2010); type: functional;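 further: cells exposed to compound for about 90 hours before reading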
[14] = target: T5, Eukaryotic translation initiation factor 2-alpha kinase 3 (Homo sapiens, UniProt Q9NZJ5); experiment: Counterscreen assay for PERK inhibitors: Dose response cell-based high throughput screening assay to measure inhibition of PERK at 6 hours. [Related pubchem assays: 1522, 1416 ]; type: functional
T5 sequence (Q9NZJ5 whole entry): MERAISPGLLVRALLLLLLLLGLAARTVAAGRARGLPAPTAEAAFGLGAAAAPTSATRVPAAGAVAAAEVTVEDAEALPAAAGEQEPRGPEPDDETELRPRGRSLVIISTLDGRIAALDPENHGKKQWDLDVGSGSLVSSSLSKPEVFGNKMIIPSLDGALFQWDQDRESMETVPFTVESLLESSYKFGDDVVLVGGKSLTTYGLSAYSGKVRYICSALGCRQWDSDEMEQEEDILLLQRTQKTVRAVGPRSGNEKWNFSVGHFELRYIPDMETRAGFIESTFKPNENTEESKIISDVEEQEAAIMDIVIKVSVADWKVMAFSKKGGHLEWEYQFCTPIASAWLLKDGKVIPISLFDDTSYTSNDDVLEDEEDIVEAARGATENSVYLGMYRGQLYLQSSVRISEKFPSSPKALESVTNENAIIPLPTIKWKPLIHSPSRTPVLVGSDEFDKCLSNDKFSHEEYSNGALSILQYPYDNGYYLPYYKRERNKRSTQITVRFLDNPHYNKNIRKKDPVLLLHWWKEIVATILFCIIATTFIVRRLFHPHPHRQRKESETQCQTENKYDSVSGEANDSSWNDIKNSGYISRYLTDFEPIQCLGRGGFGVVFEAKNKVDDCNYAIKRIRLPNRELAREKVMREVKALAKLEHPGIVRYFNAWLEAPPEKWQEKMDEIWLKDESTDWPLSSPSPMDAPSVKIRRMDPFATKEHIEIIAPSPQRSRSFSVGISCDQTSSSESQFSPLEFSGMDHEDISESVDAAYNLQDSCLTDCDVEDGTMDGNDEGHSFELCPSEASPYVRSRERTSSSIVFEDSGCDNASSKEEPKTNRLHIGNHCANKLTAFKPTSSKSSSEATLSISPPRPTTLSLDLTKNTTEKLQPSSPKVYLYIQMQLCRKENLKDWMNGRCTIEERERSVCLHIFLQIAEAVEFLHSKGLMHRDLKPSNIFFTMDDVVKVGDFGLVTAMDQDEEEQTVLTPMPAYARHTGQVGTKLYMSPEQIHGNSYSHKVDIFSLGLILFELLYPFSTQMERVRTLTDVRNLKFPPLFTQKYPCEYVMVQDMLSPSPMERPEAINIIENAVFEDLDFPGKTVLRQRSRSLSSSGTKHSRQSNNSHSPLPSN

[15] = target: T5, Eukaryotic translation initiation factor 2-alpha kinase 3; experiment: Dose response cell-based high-throughput screening assay to measure PERK inhibition. [Related pubchem assays: 1416 ]; type: functional
Bcl-2-like protein 10 = Bcl-2-like protein 10 (Homo sapiens, UniProt Q9HD36); experiment: displacers of TR3 peptide from Bcl-B, primary screen, selectivity assay for Bfl-1 inhibitor project, biochemical, fluorescence polarization, FITC-TR3 peptide (AID 748);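 further: fluorescence polarization from a fluorescein-labelled TR3 peptide binding purified Bcl-B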
Bcl-2-like protein 10, sequence (Q9HD36 whole entry): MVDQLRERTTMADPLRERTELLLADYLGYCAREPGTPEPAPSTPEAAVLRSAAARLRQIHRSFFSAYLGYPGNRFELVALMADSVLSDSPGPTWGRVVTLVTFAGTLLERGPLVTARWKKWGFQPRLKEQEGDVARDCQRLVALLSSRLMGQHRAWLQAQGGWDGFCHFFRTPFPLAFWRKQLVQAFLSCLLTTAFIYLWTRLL

Estrogen receptor beta [16] = target: T6, Estrogen receptor beta (Homo sapiens, UniProt Q92731);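 further: recombinant ER-beta bound to coactivator SRC1 peptide in presence of estradiol agonist; inhibitors block coactivator peptide binding and lower the FRET signal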
T6 sequence (Q92731 whole entry): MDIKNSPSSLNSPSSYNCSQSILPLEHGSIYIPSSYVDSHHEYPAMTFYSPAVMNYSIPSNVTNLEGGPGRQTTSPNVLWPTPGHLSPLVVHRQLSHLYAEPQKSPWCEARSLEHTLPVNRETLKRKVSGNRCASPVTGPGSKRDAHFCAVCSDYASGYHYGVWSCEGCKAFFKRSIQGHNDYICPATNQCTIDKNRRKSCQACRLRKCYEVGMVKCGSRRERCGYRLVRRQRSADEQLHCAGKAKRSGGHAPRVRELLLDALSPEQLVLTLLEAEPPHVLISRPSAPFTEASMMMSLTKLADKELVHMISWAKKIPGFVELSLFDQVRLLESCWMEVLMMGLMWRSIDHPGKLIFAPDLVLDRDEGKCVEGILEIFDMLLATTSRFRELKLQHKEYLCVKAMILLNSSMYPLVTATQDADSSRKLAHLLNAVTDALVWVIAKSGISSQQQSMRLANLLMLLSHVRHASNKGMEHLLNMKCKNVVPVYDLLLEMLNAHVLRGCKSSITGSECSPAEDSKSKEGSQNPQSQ

Estrogen receptor beta [17] = target: T6, Estrogen receptor beta; experiment: ERβ–SRC-3 coactivator interaction inhibitors, confirmation, orthogonal assay, biochemical, ELISA, streptavidin-HRP readout (AID 1060)
Protein Rev = Protein Rev (Human immunodeficiency virus type 1 group M subtype B (isolate WMJ22)(HIV-1), UniProt P05866); experiment: HIV-1 Rev-RRE RNA binding disruptors, dose response, biochemical, protein-RNA interaction (AID 842); design: species or system Human immunodeficiency virus 1
Protein Rev, sequence (P05866 whole entry): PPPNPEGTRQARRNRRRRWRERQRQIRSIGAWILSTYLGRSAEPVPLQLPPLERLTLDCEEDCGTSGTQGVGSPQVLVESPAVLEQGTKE

[18] = target: T7, Sentrin-specific protease 1 (Homo sapiens, UniProt Q9P0U3); experiment: potency of human SENP1 inhibitors, dose response, biochemical, kinetic FRET (AID 651697); type: functional; conditions: read-out: IC50_Mean
T7 sequence (Q9P0U3 whole entry): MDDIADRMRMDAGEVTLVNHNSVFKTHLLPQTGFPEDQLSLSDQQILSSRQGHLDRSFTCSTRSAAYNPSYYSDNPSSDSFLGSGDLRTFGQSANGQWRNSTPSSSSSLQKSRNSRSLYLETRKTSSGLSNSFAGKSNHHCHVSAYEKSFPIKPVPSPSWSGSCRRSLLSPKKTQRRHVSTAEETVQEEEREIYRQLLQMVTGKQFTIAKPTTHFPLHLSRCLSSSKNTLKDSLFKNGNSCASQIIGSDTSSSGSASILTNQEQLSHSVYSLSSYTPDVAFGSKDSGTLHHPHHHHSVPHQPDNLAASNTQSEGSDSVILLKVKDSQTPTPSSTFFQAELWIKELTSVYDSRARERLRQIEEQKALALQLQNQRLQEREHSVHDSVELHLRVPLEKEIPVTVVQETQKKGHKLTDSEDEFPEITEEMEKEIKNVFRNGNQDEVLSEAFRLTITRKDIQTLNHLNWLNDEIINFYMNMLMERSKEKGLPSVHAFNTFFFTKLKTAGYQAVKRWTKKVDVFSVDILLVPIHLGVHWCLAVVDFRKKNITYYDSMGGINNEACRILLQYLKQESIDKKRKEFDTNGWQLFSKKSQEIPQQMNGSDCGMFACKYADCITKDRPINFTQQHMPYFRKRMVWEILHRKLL

[19] = target: T7, Sentrin-specific protease 1; experiment: Dose response confirmation of small molecule inhibitors of the catalytic domain of the SUMO protease, SENP1 in a FRET assay.; type: functional; conditions: read-out: IC50_Mean
[20] = Counterscreen for IDE inhibitors: Luminescence-based cell-based high throughput dose response assay to identify compounds that are cytotoxic to HEK cells. [Related pubchem assays: 434962 (Primary screen (IDE inhibitors in singlicate)), 449730 (Counterscreen (Cytotoxicity in triplicate)), 435028 (Confirmation (IDE inhibitors in triplicate)) …; type: functional; conditions: HEK293
Insulin-degrading enzyme = target: T8, Insulin-degrading enzyme (Homo sapiens, UniProt P14735); experiment: Dose Response: Fluorescence polarization-based cell-based high throughput dose response assay for inhibitors of insulin-degrading enzyme (IDE). [Related pubchem assays: 434962 (Primary screen (IDE inhibitors in singlicate)), 449730 (Counterscreen (Cytotoxicity in triplicate)), 435028 (Confirmation (IDE inhibitors in triplicate)), 434984 (Summary …; type: functional
T8 sequence (P14735 whole entry): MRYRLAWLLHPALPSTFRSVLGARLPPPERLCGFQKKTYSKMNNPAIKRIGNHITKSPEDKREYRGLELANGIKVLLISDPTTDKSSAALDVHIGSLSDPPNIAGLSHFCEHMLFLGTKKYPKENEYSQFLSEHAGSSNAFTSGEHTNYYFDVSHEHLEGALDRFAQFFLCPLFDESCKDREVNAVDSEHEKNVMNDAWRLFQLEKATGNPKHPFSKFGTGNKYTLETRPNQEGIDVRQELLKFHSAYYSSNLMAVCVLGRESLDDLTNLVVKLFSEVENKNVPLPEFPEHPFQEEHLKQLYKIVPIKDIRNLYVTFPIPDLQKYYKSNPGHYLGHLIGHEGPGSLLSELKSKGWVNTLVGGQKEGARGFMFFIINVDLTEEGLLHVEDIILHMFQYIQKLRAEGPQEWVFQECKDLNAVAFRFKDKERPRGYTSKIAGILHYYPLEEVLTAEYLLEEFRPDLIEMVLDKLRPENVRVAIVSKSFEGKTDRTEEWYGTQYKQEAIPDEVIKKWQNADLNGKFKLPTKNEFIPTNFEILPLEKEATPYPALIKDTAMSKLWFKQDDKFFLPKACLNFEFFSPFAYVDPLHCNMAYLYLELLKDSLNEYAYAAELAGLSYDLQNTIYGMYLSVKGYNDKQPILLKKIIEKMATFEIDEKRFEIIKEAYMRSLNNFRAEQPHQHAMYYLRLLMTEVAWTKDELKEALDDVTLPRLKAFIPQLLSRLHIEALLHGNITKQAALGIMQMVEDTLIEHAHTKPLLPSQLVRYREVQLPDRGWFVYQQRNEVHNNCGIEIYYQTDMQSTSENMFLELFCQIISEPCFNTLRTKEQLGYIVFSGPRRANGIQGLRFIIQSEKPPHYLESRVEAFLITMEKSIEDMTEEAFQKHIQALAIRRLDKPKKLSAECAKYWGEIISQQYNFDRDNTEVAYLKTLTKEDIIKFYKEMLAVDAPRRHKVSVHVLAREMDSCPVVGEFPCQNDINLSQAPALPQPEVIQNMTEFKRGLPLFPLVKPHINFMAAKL

[21] = target: G2/mitotic-specific cyclin-B1 (Homo sapiens, UniProt P14635); experiment: G2/M cell cycle arrest in HeLa, late-stage follow-up, mechanism study for Wee1 degradation inhibitor project, FACS, panel member Cyclin B Degradation (AID 2088)
G2/mitotic-specific cyclin-B1, sequence (P14635 whole entry): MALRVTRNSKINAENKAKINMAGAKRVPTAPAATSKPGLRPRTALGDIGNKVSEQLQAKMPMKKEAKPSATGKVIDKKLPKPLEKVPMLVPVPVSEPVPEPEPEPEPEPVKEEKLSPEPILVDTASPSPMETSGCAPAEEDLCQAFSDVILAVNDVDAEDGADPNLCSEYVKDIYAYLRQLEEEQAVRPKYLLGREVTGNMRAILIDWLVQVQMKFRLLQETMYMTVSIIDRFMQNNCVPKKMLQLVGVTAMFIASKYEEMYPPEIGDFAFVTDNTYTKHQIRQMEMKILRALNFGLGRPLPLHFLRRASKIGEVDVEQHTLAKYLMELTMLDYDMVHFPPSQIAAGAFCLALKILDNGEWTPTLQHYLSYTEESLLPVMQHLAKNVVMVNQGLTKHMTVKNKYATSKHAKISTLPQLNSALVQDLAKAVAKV

Wee1-like protein kinase = Wee1-like protein kinase (Homo sapiens, UniProt P30291); experiment: G2/M cell cycle arrest in HeLa, late-stage follow-up, mechanism study for Wee1 degradation inhibitor project, FACS, panel member Wee1 Degradation (AID 2088)

Lysosomal acid glucosylceramidase, sequence (P04062 whole entry): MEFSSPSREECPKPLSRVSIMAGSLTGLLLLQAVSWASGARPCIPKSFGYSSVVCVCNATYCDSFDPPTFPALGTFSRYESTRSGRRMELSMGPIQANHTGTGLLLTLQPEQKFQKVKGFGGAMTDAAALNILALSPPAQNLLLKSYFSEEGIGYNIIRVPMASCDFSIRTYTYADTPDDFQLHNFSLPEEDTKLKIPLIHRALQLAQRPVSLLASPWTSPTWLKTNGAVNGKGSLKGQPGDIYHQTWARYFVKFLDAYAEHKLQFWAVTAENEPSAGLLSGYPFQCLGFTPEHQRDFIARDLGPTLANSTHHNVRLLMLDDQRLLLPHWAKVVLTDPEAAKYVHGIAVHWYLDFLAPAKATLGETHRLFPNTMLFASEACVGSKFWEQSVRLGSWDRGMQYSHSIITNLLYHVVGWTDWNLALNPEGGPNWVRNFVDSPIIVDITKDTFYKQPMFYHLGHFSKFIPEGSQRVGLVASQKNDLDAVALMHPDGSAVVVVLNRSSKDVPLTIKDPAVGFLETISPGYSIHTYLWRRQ

COc1ccc(CN(Cc2cc3cccc(C)c3nc2O)C(=O)N(C)C)cc1
EC50 [1]: > 10 µM (not active)

CCOC(=O)c1ccccc1OC(=O)c1ccc2c(c1)C1C=CCC1C(C(=O)O)N2 (centres undefined)
IC50 [2]: 35.1 µM (active) | IC50 [3]: 6.01 µM (active) | IC50 [4]: 112 µM (active) | IC50 [5]: 3.3 µM (active) | IC50 [6]: > 100 µM (not active) | IC50 [7]: 14.1 µM (active)

Cn1cnc(S(=O)(=O)Nc2ccc(OC(F)(F)F)cc2)c1
AC50 (Vibrio harveyi [8]): 4.67 µM (active) | AC50 (Vibrio harveyi [8]; Vibrio harveyi): 5.06 µM (active) | AC50 (Vibrio harveyi [9]): 3.13 µM (active)

O=C1NC(=O)C(=Cc2ccc(-c3ccc(F)cc3O)o2)C(=O)N1
IC50 (Procathepsin L): > 59.6 µM (not active) | IC50 (Aspartyl aminopeptidase): 4.13 µM (active) | IC50 (Large T antigen): 39.9 µM (active) | IC50 [10]: 63.8 µM (inactive)

CCOC(=O)c1c(NC(=O)N/N=C/c2ccccc2OCC)sc(C(C)=O)c1C
EC50 [11]: > 100 µM (not active) | EC50 [12]: 2.88 µM (active) | EC50 [13]: > 60 µM (not active)

COc1ccc(Nc2nnc(C)c(O)n2)c(OC)c1
EC50 [14]: > 55.7 µM (not active) | EC50 [15]: > 55.7 µM (not active)

Cc1ccc(S(=O)(=O)Cc2ccc(C(=O)N3CCc4ccccc4C3)o2)cc1
IC50 (Bcl-2-like protein 10): 20.5 µM (active) | IC50 (Estrogen receptor beta [16]): 4.88 µM (active) | IC50 (Estrogen receptor beta [17]): < 0.023 µM (not active)

COc1ccc(C2N=C(N)N=C(N)N2c2ccc(C)cc2)cc1 (centres undefined)
IC50 (Protein Rev): > 79.4 µM (not active)

CCN(CC)C(=O)Cn1cc(C(=O)C(=O)N2CC=C(c3ccccc3)CC2)c2ccccc21
IC50 [18]: 20.4 µM (inactive) | IC50 [19]: 7.95 µM (active) | IC50 [20]: 24.4 µM (not active) | IC50 (Insulin-degrading enzyme): 35.1 µM (not active)

CCOC(=O)c1cccc(NC(=O)CCCOc2cc(=O)n(C)c3ccccc23)c1
EC50 [21]: > 49.7 µM (inactive) | EC50 (Wee1-like protein kinase): > 49.7 µM (inactive)
